Data as given in US6380158B1, “Motilin homologs” (ZymoGenetics, Inc., priority 1997, dated 2002).

Columns and labels:
[1] = tested on: antral portion of the stomach; experiment: Rat stomach contraction in vivo: topical application between two transducing crystals on the antrum; design: species or system Sprague-Dawley rats
Excerpt: Two male Sprague-Dawley rats, approximately 12 weeks old (Harlan, Indianapolis, Ind.) were anesthetized with urethane and their stomachs were exposed through a small abdominal incision. Two 2.4 mm transducing crystals (Sonometrics, Ontario, Canada) were placed on the antral portion of the stomach such that circular contractions could be monitored as a change in the distance between the two crystals. The crystals were attached with VETBOND TISSUE ADHESIVE (3M, St. Paul, Minn.).
The amplitude of the NE-induced decrease was approximately 50% of the acetylcholine-induced increase in distance. Both responses were transient.
A negative control of 10 μl of phosphate buffer solution (PBS) applied topically between the crystals had no effect.
A 14 amino acid zsig33 peptide (from amino acid residue 24 (Gly) to amino acid residue 37 (Gln) of SEQ ID NO: 2) was dissolved in PBS) and 10 μl was applied topically for a final concentration of 1 μg, 10 μg or 100 μg.

ob/ob mice = experiment: Oral glucose challenge in ob/ob mice after oral gavage of the peptide (serum glucose levels); assay type: in vivo; conditions: 100 μg orally, 30 minutes prior to oral glucose challenge
Description: Eight female ob/ob mice, approximately 6 weeks […] old (Jackson Labs, Bar Harbor, Me.) were adapted to a 4 hour daily feeding schedule for two weeks. After two weeks on the feeding schedule, the mice were give 100 μg of a 14 amino acid amino zsig33 peptide (from amino acid residue 24 (Gly) to amino acid residue 37 (Gln) of SEQ ID NO: 2) in 100 μl sterile 0.1% BSA by oral gavage, immediately after their eating period (post-prandially). Thirty minutes later, the mice were challenged orally with a 0.5 ml volume of 25% glucose. Retroorbital bleeds were done to determine serum glucose levels. Blood was drawn prior to zsig33 dosing, prior to oral glucose challenge, and at 1, 2, 4, and 20 hours following the glucose challenge.

[2] = 10 μl of 1 μM applied topically, anesthetized rats

Compound | amplitude of the NE-induced decrease relative to the acetylcholine-induced increase in distance [1, 2] | change in the distance between the two crystals (circular contractions of the stomach) [1, 2] | post-prandial glucose absorption (serum glucose levels) (ob/ob mice) | change in crystal distance (stomach contractions) ([1]; 1 μg in 10 μl PBS applied topically) | change in crystal distance (rate and amplitude of contractions) ([1]; 10 μg in 10 μl PBS applied topically) | change in crystal distance (rate and amplitude of contractions) ([1]; 100 μg in 10 μl PBS applied topically)
NC[C@H](O)c1ccc(O)c(O)c1 [norepinephrine, reference compound] | approximately 50% | reduction in the distance between the two crystals | – | – | – | –
zsig33 peptide: 14 amino acid zsig33 peptide, from amino acid residue 24 (Gly) to amino acid residue 37 (Gln) of SEQ ID NO: 2 (GSSFLSPEHQRVQQ) | – | – | enhanced post-prandial glucose absorption | sustained, rhythmic increase and decrease in crystal distance | enhanced responses in both rate and amplitude | enhanced responses in both rate and amplitude
